Data from US11213515B1, “Compounds that interact with the Ras superfamily for the treatment of cancers, inflammatory diseases, rasopathies, and fibrotic disease” (Shy Therapeutics LLC, priority 2017, dated 2022).

Molecular target: KRas G12D/Q61H double mutant (Homo sapiens (Human), UniProt P01116, G12D/Q61H)
Assay: Ras GTP binding domain inhibition assay (labeled GTP)
Conditions: 20 μM compound
Procedure: Buffer-I: • 50 mM Tris, pH 7.5 • 150 mM NaCl (optional) • 1 mM MgCl2 • 1 mM DTT. • KRas G12D mutant protein was expressed as a His-tagged protein. Purified His-KRas G12D protein was diluted in buffer-I to a final concentration of 3-10 μg/ml. • 200 μl of the diluted His-KRas G12D protein was added to a nickel coated 96 well plate and incubated overnight at 4° C. • The next day, wells were washed 3× in 200 μl of Buffer-I. • Then 200 μl of Buffer-I were added to each well in the presence of 1% DMSO. • Tested compounds were added to the protein-coated wells at a concentration of 20 μM, and incubated for 3 hours at room temperature. […]
Then 22 μl of Cy3-GTP or Cy5-GTP was added to each well. The labeled GTP was incubated for 45 min. at room temperature. • Following GTP incubation, wells were washed 3× in Buffer-I, and 200 μl of Buffer-I were added to each well. • Following washes, the amount of bound labeled-GTP was measured with an Eppendorf AF2200 plate reader.
By substituting KRas G12D mutant protein with KRas G12C mutant, KRas wild type, KRas Q61H mutant, KRas G12D/Q61H double mutant or KRas G12C/Q61H double mutant under the assay conditions described above, KRas G12C mutant KRas wild type, KRas Q61H mutant, KRas G12D/Q61H double mutant and KRas G12C/Q61H double mutant inhibition, respectively, were each determined.

KRas G12D/Q61H double mutant, sequence (P01116-2 other isoform, or with tags, fused parts or gaps G12D/Q61H): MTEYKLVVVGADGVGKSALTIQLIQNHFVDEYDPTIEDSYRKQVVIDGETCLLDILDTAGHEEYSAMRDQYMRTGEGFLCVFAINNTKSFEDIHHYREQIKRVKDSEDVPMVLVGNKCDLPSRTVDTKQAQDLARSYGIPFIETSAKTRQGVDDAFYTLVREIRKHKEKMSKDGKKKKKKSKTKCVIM

Work on `COCCn1c(SC(C)c2nc(-c3cccnc3)no2)nc2cc(Cl)ccc2c1=O` (stereo not shown) yielded an inhibition at 20 µM of 1 to 25%.
